Measurements taken from patent US20070048225A1, “NK3 receptor in vivo assay” (priority 2005, published 2007).
Numbered stars: 1 amine (or outer) side, 2 acyl side, 3 side chain; on linkers, the order of the positions; unused ones are H or OH. Square brackets hold non-standard residues; d marks the D form. Peptide text beside a SMILES is read from it. NMeF = CN[C@@H](Cc1ccccc1)C(=O)O; Suc = O=C(CCC(=O)[*:2])[*:1]

Columns and labels:
NK3 receptor = assay: Senktide-induced locomotor activity in gerbils (total distance traveled); format: in vivo, Mongolian gerbil; settings: senktide 0.01, 0.03 or 0.1 nM/5 μL ICV tested, effect at 0.1 nM/5 μL, activity measured for 90 minutes, FIG. 1
Procedure: Male and female Mongolian gerbils [Biological Research Laboratories, 4414 Füllinsdorf, Switzerland] weighing between 40-70 g were used. Gerbils were housed four per cage for approximately four to seven days following arrival in the laboratory colony. The gerbils had ad libitum access to tap water and lab chow in the home cage. The animal quarters were maintained on a 12:12 hour light-dark cycle with light onset at 6 a.m. and with both temperature (21-23° C.) and humidity (55-65%) regulated. All testing was conducted during the light phase of the light-dark cycle. All procedures described here received prior approval from the City of Basel Cantonal Animal Protection Committee based on adherence to federal and local regulations. The experiments were carried out in an animal colony supervised by the veterinary staff of Hoffmann-La Roche Ltd.
The antagonists were prepared immediately prior to use (vehicle 0.3% Tween-80/saline). […]
The incision was closed using a clip suture and gerbils were placed into perspex boxes on recovery of their righting reflex and then placed into locomotor activity boxes (Accuscan instruments, USA). Activity was then measured automatically for a period of 90 minutes.
Data were analysed using a One way anova followed by Dunnet multiple comparison test or t-test (one-tailed) where appropriate (Statistica, Statsoft).

NK3-receptor = biological target: T1, NK3-receptor (Homo sapiens, UniProt P29371); settings: double blind placebo controlled; Meltzer et al. 2004; cited from earlier work
T1 construct: active in a double blind placebo controlled clinical trial in schizophrenia patients; host or cells: schizophrenia patients (Meltzer et al., Am J Psych 161:975-84, 2004)
T1 sequence (P29371 1-465): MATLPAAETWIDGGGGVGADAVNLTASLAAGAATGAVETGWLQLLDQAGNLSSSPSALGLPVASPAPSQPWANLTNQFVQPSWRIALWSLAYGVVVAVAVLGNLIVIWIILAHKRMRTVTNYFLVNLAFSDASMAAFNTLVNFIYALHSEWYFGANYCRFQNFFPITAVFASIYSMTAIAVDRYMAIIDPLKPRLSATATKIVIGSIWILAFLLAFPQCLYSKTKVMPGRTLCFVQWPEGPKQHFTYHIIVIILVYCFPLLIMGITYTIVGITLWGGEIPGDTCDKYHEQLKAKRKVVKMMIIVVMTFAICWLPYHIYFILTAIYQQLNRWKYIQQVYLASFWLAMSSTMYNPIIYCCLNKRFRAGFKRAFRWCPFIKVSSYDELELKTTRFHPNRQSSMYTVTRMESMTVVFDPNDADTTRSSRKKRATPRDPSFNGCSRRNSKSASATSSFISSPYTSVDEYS

For `CSCC[C@H](NC(=O)[C@H](CC(C)C)NC(=O)CNC(=O)[C@H](Cc1ccccc1)N(C)C(=O)[C@H](Cc1ccccc1)NC(=O)[C@H](CC(=O)O)NC(=O)CCC(=O)O)C(N)=O` [Senktide, N-(3-carboxy-1-oxopropyl)-L-α-aspartyl-L-phenylalanyl-N-methyl-L-phenylalanylglycyl-L-leucyl-L-methioninamide] (Suc-DF[NMeF]GLM-NH2), which “total distance traveled (locomotor activity)” value (NK3 receptor) is on record?
Its value is “significant increase”.

For `CC(=O)N(C)C1(c2ccccc2)CCN(CCC[C@]2(c3ccc(Cl)c(Cl)c3)CCCN(C(=O)c3ccccc3)C2)CC1` [SR142801], which “activity in clinical trial in schizophrenia patients” value (NK3-receptor) is on record?
The value was “active”.
